Measurements published in publication PMC6827146, “Short-Term Low Temperature Induces Nitro-Oxidative Stress that Deregulates the NADP-Malic Enzyme Function by Tyrosine Nitration in Arabidopsis thaliana” (Antioxidants, 2019).

Target: T1, cytosolic NADP-ME2 (recombinant Arabidopsis NADP-malic enzyme 2) (Arabidopsis thaliana, UniProt Q9LYG3)
T1 construct: full-length cDNA (1785 bp PCR product) in pALEXb; E. coli
T1 sequence (Q9LYG3 1-588): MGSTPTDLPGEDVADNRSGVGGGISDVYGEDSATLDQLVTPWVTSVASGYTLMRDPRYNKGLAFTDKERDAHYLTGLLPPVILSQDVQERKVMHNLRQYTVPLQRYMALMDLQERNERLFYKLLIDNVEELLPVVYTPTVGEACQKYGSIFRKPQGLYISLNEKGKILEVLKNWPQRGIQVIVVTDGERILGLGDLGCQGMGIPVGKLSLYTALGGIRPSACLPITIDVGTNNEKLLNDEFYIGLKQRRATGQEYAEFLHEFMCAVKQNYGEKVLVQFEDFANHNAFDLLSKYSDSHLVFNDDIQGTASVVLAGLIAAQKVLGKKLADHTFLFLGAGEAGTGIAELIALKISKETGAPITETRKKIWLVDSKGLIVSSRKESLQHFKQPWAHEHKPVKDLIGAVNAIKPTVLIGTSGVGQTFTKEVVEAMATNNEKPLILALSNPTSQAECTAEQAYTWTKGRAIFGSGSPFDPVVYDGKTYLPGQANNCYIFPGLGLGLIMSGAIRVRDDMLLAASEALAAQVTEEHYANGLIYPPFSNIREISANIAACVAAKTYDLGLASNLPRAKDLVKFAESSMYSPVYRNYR
Test: spectrophotometric NADP reduction at […] nm after preincubation with peroxynitrite donor
Assay type: biochemical
Details: covalent (Tyr-73 nitration); peroxynitrite generated in situ from donor SIN-1, so concentration is that of the donor; 37 °C, 1 h preincubation; assay pH 7.6, 25 °C, 2 mM MgCl2, 0.8 mM NADP, 1 mM L-mal

For ONOO^−, the “% inhibition with 5 mM SIN-1 (donor)” value was 56%.
